Source: patent US12616704B2, “Cannabichromene formulation for pain management” (Zyus Life Sciences Inc., priority 2020, dated 2026)

Tested on: SNL-induced mechanical hypersensitivity
Assay: Tactile allodynia test (electronic von Frey, evF) in spinal nerve ligation (SNL) model
Assay type: in vivo, Sprague-Dawley rats
Conditions: for evF, Vehicle vs. treatment: Summary / evF, Vehicle vs. treatment: Predicted (LS) mean diff.: between groups; for evF, Vehicle vs. treatment: Predicted (LS) mean diff. / evF, Pre-Dosing vs. 2 h-PD: Predicted (LS) mean diff. / evF, Pre-Dosing vs. 4 h-PD: Predicted (LS) mean diff. / evF, Pre-Dosing vs. 8 h-PD: Predicted (LS) mean diff. / evF, Pre-Dosing vs. 24 h-PD: Predicted (LS) mean diff.: PWT % from baseline; for Post-SNL vs. BL: Predicted (LS) mean diff.: evF PWT % from baseline; for Post-SNL vs. BL: Predicted (LS) mean diff. / Post-SNL vs. BL: Significant? / Post-SNL vs. BL: Summary: baseline vs. D7 (pre-dosing, before treatment); for Post-SNL vs. BL: Predicted (LS) mean diff. / Post-SNL vs. BL: Significant? / Post-SNL vs. BL: Summary / evF, Pre-Dosing vs. 2 h-PD: Summary / evF, Pre-Dosing vs. 4 h-PD: Summary / evF, Pre-Dosing vs. 8 h-PD: Summary / evF, Pre-Dosing vs. 24 h-PD: Summary / evF, Pre-Dosing vs. 2 h-PD: Predicted (LS) mean diff. / evF, Pre-Dosing vs. 4 h-PD: Predicted (LS) mean diff. / evF, Pre-Dosing vs. 8 h-PD: Predicted (LS) mean diff. / evF, Pre-Dosing vs. 24 h-PD: Predicted (LS) mean diff.: within group; for duration of prolonged anti-nociceptive effect after one-time administration / Post-SNL vs. BL: Significant? / Post-SNL vs. BL: Summary: evF; for AUC of % PWT curve, Vehicle vs. treatment: Mean Diff. / AUC of % PWT curve, Vehicle vs. treatment: Summary: pre-dosing to 24 h PD; for evF, Pre-Dosing vs. 24 h-PD: Summary / evF, Pre-Dosing vs. 24 h-PD: Predicted (LS) mean diff.: pregabalin 50 mg/kg i.p. re-dosed 2 h before evF on D9
Description: The treatment groups received the following test article mixtures: • Group 1: treated with vehicle (0.9% saline) • Group 2: treated with Pregabalin (50 mg/kg) • Group 3: treated with CBC (10 mg/kg)
Administration of Treatments. CBC (cannabichromene) formulation, the vehicle, or pregabalin treatment was administered according to Table 1 on study day 8 to all study animals, and on study day 10 to 6 animals per group. The dousing route of CBC or the vehicle were intragastric (p.o.), while pregabalin was administered intraperitoneally (i.p.). In addition to D8, pregabalin was administered on D9, at 2 h prior to the evf test. All animals of the pregabalin group were euthanized on D9, following the last test trial. The CBC was dissolved and diluted to one of the following vehicles:
Spinal Nerve Ligation (SNL) Surgery. The animals were enrolled to SNL surgery in daily cohorts of n=6, according to the number of animals operated per day). The rat first received an intraperitoneal dose of 0.03 mg/kg buprenorphine (Temgesic), at minimum of 30 minutes prior to the surgery, to alleviate the operative and postoperative pain unrelated to neuropathy. The rats were anesthetized with isoflurane in 70% N2O and 30% O2; with a flow rate of 300 ml/min. Anesthesia was inducted with 5% isoflurane for 2-3 min, and maintained through a snout mask with 1-2% isoflurane thereafter.
A dorsal incision extending from L3 to S2 was performed to the medial dorsal area of the rat using aseptic technique. The L6/S1 posterior intrarticular process was exposed using a combination of blunt and sharp dissection. The L6 transverse process in the spinal column was visualized and partially removed without manipulating the nerves, followed by exposing the L4 and L5 spinal nerves distal to their emergence from the intervertebral foramina. Tight double knots of 6-0 silk suture were placed on both spinal nerves.
Tactile Allodynia Test (evF). In this study, mechanical sensitivity to punctate stimulus was defined at six time points, by using electronic von Frey (evF) device with the attached analysis software (Somedic®, Sweden).
Rats displaying inborn oversensitivity were disqualified from the study. Oversensitivity was defined as baseline paw withdrawal threshold (PWT) of <20 g with 1 mm probe. Following the baseline evF testing, the rats were weighed and numbered prior to surgery.
To perform the evF test, the rats were placed in individual von Frey test chambers standing on an elevated steel mesh. The rats were allowed to adapt in the chambers, and the test emerged after they had settled down after investigating the chamber and grooming (approximately 15 min).
Mechanical allodynia was assessed by evF test prior to SNL surgery (baseline), to define the individual “innate” sensitivity levels of the study animals. Next, the evF was performed on D7 post-SNL, to assess the hypersensitivity evoked by the SNL surgery, and to evaluate pre-dosing sensitivity values. Next day (D8), the animals were tested by evF at 2 h, at 4 h, and at 8 h post-dosing (PD). The last evF time point occurred at 24 h PD, i.e. on D9. The listed post-dosing times were used for all groups except group 2, which on D9 received pregabalin at 2 h prior to evF.
The evF apparatus was used according to the manufacturer's instructions. Briefly, upon each measurement, the force was applied to mid-plantar surface of the hind paw in a linearly increasing rate. The used evF probe diameter was 1 mm, and the chosen ascent rate of force 10 g/s. Linearity of force application was monitored real-time. The applied force (in grams) causing paw withdrawal was recorded by the
Altogether 5 repeated measurements were applied to each hind paw at each time-point, leaving a minimum of 3-min interval between the repeats. Three values closest to the median were then averaged to produce result value for each paw at any given time point. Both ipsi- and contralateral paws were tested on each test day.
Statistical Analysis. […]

[1] = 2 h-PD, CBC 10 mg/kg p.o., pregabalin 50 mg/kg i.p.
[2] = 4 h-PD, CBC 10 mg/kg p.o., pregabalin 50 mg/kg i.p.
[3] = 8 h-PD, CBC 10 mg/kg p.o., pregabalin 50 mg/kg i.p.
[4] = 24 h-PD (D9), CBC 10 mg/kg p.o., pregabalin 50 mg/kg i.p. re-dosed 2 h before evF
[5] = CBC 10 mg/kg p.o., pregabalin 50 mg/kg i.p.

| SMILES | evF, Vehicle vs. treatment: Summary [1] | evF, Vehicle vs. treatment: Predicted (LS) mean diff. [1] | evF, Vehicle vs. treatment: Summary [2] | evF, Vehicle vs. treatment: Predicted (LS) mean diff. [2] | evF, Vehicle vs. treatment: Summary [3] | evF, Vehicle vs. treatment: Predicted (LS) mean diff. [3] | evF, Vehicle vs. treatment: Summary [4] | evF, Vehicle vs. treatment: Predicted (LS) mean diff. [4] | evF, Vehicle vs. treatment: Summary (Pre-Dosing (D7)) | evF, Vehicle vs. treatment: Predicted (LS) mean diff. (Pre-Dosing (D7)) | Post-SNL vs. BL: Predicted (LS) mean diff. | duration of prolonged anti-nociceptive effect after one-time administration [5] | Post-SNL vs. BL: Significant? | Post-SNL vs. BL: Summary | AUC of % PWT curve, Vehicle vs. treatment: Mean Diff. [5] | AUC of % PWT curve, Vehicle vs. treatment: Summary [5] | evF, Pre-Dosing vs. 2 h-PD: Summary [5] | evF, Pre-Dosing vs. 4 h-PD: Summary [5] | evF, Pre-Dosing vs. 8 h-PD: Summary [5] | evF, Pre-Dosing vs. 24 h-PD: Summary (CBC 10 mg/kg p.o.) | further results |
| --- | --- | --- | --- | --- | --- | --- | --- | --- | --- | --- | --- | --- | --- | --- | --- | --- | --- | --- | --- | --- | --- |
| CC(C)C[C@H](CN)CC(=O)O [Pregabalin, pregabalin, reference compound] | ns | −12.08 | ns | −0.8299 | ns | −12.91 | ns | −7.967 | ns | −0.02247 | 46.58 | not observed | Yes | **** (p<0.0001, extremely/highly significant) | −29.80 | • (p<0.1, an established trend towards significance) | *** (p<0.001, extremely/highly significant) | ns | ns | ns | evF, Pre-Dosing vs. 2 h-PD: Predicted (LS) mean diff. [5]: −26.59; evF, Pre-Dosing vs. 4 h-PD: Predicted (LS) mean diff. [5]: −9.891; evF, Pre-Dosing vs. 8 h-PD: Predicted (LS) mean diff. [5]: −16.03; evF, Pre-Dosing vs. 24 h-PD: Predicted (LS) mean diff. (CBC 10 mg/kg p.o.): −9.176 |
| CCCCCc1cc(O)c2c(c1)OC(C)(CCC=C(C)C)C=C2 (stereo not shown) [CBC, cannabichromene] | ns | −15.45 | ns | −10.25 | ns | −17.12 | ns | −14.84 | ns | −0.627 | 45.98 | up to 8 hours | Yes | **** (p<0.0001, extremely/highly significant) | −50.00 | ** (p<0.01, very significant) | *** (p<0.001, extremely/highly significant) | * (p<0.05, significant) | * (p<0.05, significant) | ns | effect on SNL-induced hypersensitivity (evF), between-group (CBC 10 mg/kg p.o.): appears to evoke a trend of reversing hypersensitivity; evF, Pre-Dosing vs. 2 h-PD: Predicted (LS) mean diff. [5]: −29.36; evF, Pre-Dosing vs. 4 h-PD: Predicted (LS) mean diff. [5]: −18.71; evF, Pre-Dosing vs. 8 h-PD: Predicted (LS) mean diff. [5]: −19.64; evF, Pre-Dosing vs. 24 h-PD: Predicted (LS) mean diff. (CBC 10 mg/kg p.o.): −15.44 |
